Test results reported in patent US10100198B2, “Application of reduced dyes in imaging” (LI-COR, Inc., priority 2011, dated 2018).
Where “and” joins values, the source holds several entries; their conditions need not be identical. Identical values can stand only once. Each block holds one compound with its values, some of them ahead of it.

Legend:
[1] = UV/vis absorption and emission; assay type: physicochemical; details: for Extinction Coefficient: in M-1·cm-1 (unit assumed)
Experimental: Compound 1 (80 mg), 3-(4-carboxybutyl)phenylboronic acid (40 mg), and cesium carbonate (20 mg) are stirred into 1:1 water:ethanol (10 ml) under nitrogen at room temperature. Tetrakis(triphenylphosphine)palladium(0) (10 mg) is added to the reaction mixture. The mixture was refluxed for 4 hours, and the solvent and volatile compounds are evaporated under vacuum. The crude product is purified by flash chromatography on reverse-phase C18-functionalized silica by eluting with a 1:4 acetonitrile:water mixture. The purified product 3 has UV/vis absorption max of λMeOH=680 nm, ε=229,000; λPBS=676 nm, ε=239,000.
Compound 7 (80 mg), 3-(2-carboxyethyl)phenylboronic acid (40 mg), and cesium carbonate (20 mg) were stirred into water (20 mL) under nitrogen at room temperature. Tetrakis(triphenylphosphine)palladium (0) (10 mg) were added to the reaction mixture. The mixture was refluxed for 4 h, and the solvent and volatile compounds then were evaporated under vacuum. The crude product was purified by flash chromatography on reverse-phase silica with an acetonitrile/water mixture as the eluent. The purified compound had λMeOH=680 nm, λPBS=672 nm, ε=160,000.

[2] = test system: ROS generation in RAW264.7 macrophages; assay: Imaging LPS-induced ROS generation in RAW264.7 macrophages by fluorescence microscope; assay type: cell-based, mouse; details: RAW264.7 cells, 5 μM hydrocyanines, 30 min
[3] = Water solubility of reduced dyes; assay type: physicochemical
[4] = Cell permeability of reduced dyes; assay type: in vitro ADME
β actin in A431 lysate = assay: Western blot detection with chemifluorescent substrates, A431 lysate probed with mouse anti-β actin and HRP goat anti-mouse antibodies; parameters: species or system Human
Text: Use of H-IR780F2 and H-IRDye® 800CW for blot imaging was compared to a commercially-available 680 HRP ELISA substrate (see FIG. 15). 4-12% Bis-Tris gels were loaded with 2-fold, 7-point serial dilutions of A431 lysate (high conc.=[…]), electrophoresed, transferred to Odyssey Nitrocellulose, blocked with SeaBlock Blocking Buffer (with ProClin preservative). The blots were probed with mouse anti-β actin antibodies, followed by HRP goat anti-mouse antibodies (FIG. 15, A-D) or dye-conjugated goat anti-mouse antibodies (FIG. 15, E-F). Blots probed with HRP goat anti-mouse antibodies were incubated for 5 min with chemifluorescent substrates in buffer containing hydrogen peroxide. H-IRDye® 800CW and H-IR780F2 were tested at 10 μM with 50-200 μM H2O2. HRP 680 ELISA substrate was used according to published protocols (i.e., LI-COR product no. 926-34300).
The basic workflow remains unchanged and therefore, the chemifluorescent substrate based analysis is amenable to other methods of protein analysis, such as ELISAs and protein arrays.

HRP = target: T1, HRP (Armoracia rusticana, UniProt P00433); assay: 800 HRP substrate test of DIR780F2-P, with and without enzyme, varied pH and Triton X-100; assay type: biochemical, horseradish; details: two hours at ambient temperature
T1 sequence (P00433 31-338): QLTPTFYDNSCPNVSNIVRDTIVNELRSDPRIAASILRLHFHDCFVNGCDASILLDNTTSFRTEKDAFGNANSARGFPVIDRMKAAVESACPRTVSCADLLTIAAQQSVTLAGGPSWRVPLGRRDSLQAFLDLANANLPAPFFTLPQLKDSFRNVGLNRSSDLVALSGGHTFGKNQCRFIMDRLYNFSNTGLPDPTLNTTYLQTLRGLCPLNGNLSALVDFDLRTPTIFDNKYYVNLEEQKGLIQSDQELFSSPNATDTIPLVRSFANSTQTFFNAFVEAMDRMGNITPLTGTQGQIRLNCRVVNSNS
Text: Their efficacies as 800 HRP substrates have been tested in the ELISA format.

[5] = target: T2, goat anti-mouse HRP-labeled antibody (GAM-HRP) (Armoracia rusticana, UniProt P00433); assay: H-IR 780 / D-IR 780 as HRP substrate with HRP-labeled antibody in 96-well plate; assay type: biochemical, horseradish; details: 10 μM substrate, HRP 800 Assay Buffer pH 3.0, 10 minutes ambient temperature, Odyssey 800 nm channel
T2 sequence (P00433 31-338 limits assumed): T1 sequence (P00433 31-338)
Text: Reduced hydrocyanine dyes (H- or D-versions) are nonfluorescent, but turn fluorescent upon oxidation. This activation property was exploited to utilize the reduced hydrocyanine dyes as horseradish peroxidase (HRP) substrates. In certain embodiments of an enzymatic assay, the hydrocyanines can be oxidized by HRP using hydrogen peroxide as the oxidizing agent, yielding a fluorescent signal. In some preferred embodiments, this fluorescent signal's wavelength can range from 530-900 nm depending on the structure of the dye.
HRP 800 Assay Buffer: The HRP 800 Assay Buffer contains 60 μM Hydrogen Peroxide, 0.2 μg/mL Acetanilide, 0.02% Triton X−100, in 100 mM Citrate Buffer, pH 3.0.
H-IR 780 Substrate solution: 10 μM H-IR 780 in the HRP 800 Assay Buffer.
D-IR 780 Substrate solution: 10 μM D-IR 780 in the HRP 800 Assay Buffer.
The utility of the H-IR 780 and D-IR 780 as a HRP substrate was tested by reaction of the dye with an enzyme-labeled antibody. The substrate, when oxidized by HRP and hydrogen peroxide, yields a fluorescent signal at approximately 800 nm in the NIR. […] Wells B12, C12 and D12 received 10 μL of PBS buffer (pH 7.2) and were used as a control to measure the background fluorescence. […]

SMILES: CCCN1/C(=C/C=C/C2N(CCC)c3ccccc3C2(C)C)C(C)(C)c2ccccc21 (stereo not drawn) [H-Cy3]
fluorescent intensity in LPS treated cells compared to untreated cells [2]: increased fluorescent intensity in the LPS treated cells compared to the untreated cells

SMILES: CCCN1/C(=C/C=C2\CCCC(/C=C/C3N(CCC)c4ccccc4C3(C)C)=C2c2cccc(F)c2F)C(C)(C)c2ccccc21 (stereo not drawn) [H-IR780F2]
fluorescent intensity in LPS treated cells compared to untreated cells [2]: increased fluorescent intensity in the LPS treated cells compared to the untreated cells
Western blot signal, background and linearity (β actin in A431 lysate; 10 μM substrate, 50-200 μM H2O2, 5 min incubation): good signal with high linearity for lower signals and moderate linearity for higher signals
Lower Limit of Detection (LLD) (β actin in A431 lysate; Western blots): 1.5 ng
sensitivity compared to chemiluminescent detection (luminol-based reagent system) (β actin in A431 lysate; Western blots): 32 fold
sensitivity compared to fluorescent dye-conjugated secondary antibody detection (β actin in A431 lysate; Western blots): 16 fold

SMILES: CC1(C)C(/C=C/C(=C/C=C2/N(CCCS(=O)(=O)[O-])c3ccc4c(S(=O)(=O)[O-])cc(S(=O)(=O)[O-])cc4c3C2(C)C)c2cccc(CCCCC(=O)O)c2)=[N+](CCCS(=O)(=O)[O-])c2ccc3c(S(=O)(=O)[O-])cc(S(=O)(=O)[O-])cc3c21.[Na+].[Na+].[Na+].[Na+].[Na+] [Compound 3, Sodium 2-((1E,3Z,5E)-3-(3-(4-Carboxybutyl)phenyl)-5-(1,1-dimethyl-6,8-disulfonato-3-(3-sulfonatopropyl)-1H-benzo[e]indol-2(3H)-ylidene)penta-1,3-dienyl)-1,1-dimethyl-3-(3-sulfonatopropyl)-1H-benzo[e]indolium-6,8-disulfonate]
Max. Abs. ([1]; MeOH): 680 nm
Extinction Coefficient ([1]; MeOH): 229,000
Max. Abs. ([1]; PBS): 676 nm
Extinction Coefficient ([1]; PBS): 239,000

SMILES: CCCN1/C(=C/C=C2\CCCC(/C=C/C3N(CCC)c4ccccc4C3(C)C)=C2Cl)C(C)(C)c2ccccc21 (stereo not drawn) [H-IR 780]
fluorescence signal at approximately 800 nm versus GAM-HRP concentration [5]: intensity of the fluorescence signal increased with increasing concentration of GAM-HRP

Second part, the compound after the results:

Max. Abs. ([1]; MeOH): 680 nm
Max. Emis. ([1]; MeOH): 694 nm
Extinction Coefficient ([1]; MeOH): 170,000
Max. Abs. ([1]; PBS): 672 nm
Max. Emis. ([1]; PBS): 694 nm
Extinction Coefficient ([1]; PBS): 160,000
SMILES: CC1(C)C(/C=C/C(=C/C=C2/N(CCCS(=O)(=O)[O-])c3ccc(S(=O)(=O)[O-])cc3C2(C)C)c2cccc(CCC(=O)O)c2)=Nc2c1cc(Cl)c[n+]2CCCS(=O)(=O)[O-].[Na+].[Na+] [Compound 8, Sodium (E)-2-((2Z,4E)-3-(3-(2-Carboxyethyl)phenyl)-5-(5-chloro-3,3-dimethyl-7-(3-sulfonatopropyl)-3H-pyrrolo[2,3-b]pyridin-7-ium-2-yl)penta-2,4-dienylidene)-3,3-dimethyl-1-(3-sulfonatopropyl)indoline-5-sulfonate]

water solubility [3]: improved water solubility
cell permeability [4]: cell permeable
SMILES: CC1(C)\C(=C/C=C(Br)/C=C/C2N(CCCCCCO)c3ccccc3C2(C)C)N(CCCCCCO)c2ccccc21 (stereo not drawn) [H-IR650DIOL, 6-((E)-2-((2Z,4E)-3-bromo-5-(1-(6-hydroxyhexyl)-3,3-dimethylindolin-2-yl)penta-2,4-dien-1-ylidene)-3,3-dimethylindolin-1-yl)hexan-1-ol]

+Enzyme signal (HRP; pH 5, Triton X-100 0.01%): 111403 and 107251 and 95434 and 93017
Mean Background (HRP; pH 5, Triton X-100 0.01%): 17016
Mean Signal (HRP; pH 5, Triton X-100 0.01%): 101776
Signal-Background (HRP; pH 5, Triton X-100 0.01%): 84761
−Enzyme signal (HRP; pH 5, Triton X-100 0.01%): 14729 and 17889 and 16731 and 18713
+Enzyme signal (HRP; pH 5, Triton X-100 0.05%): 110308 and 116984 and 91720 and 95384
Mean Background (HRP; pH 5, Triton X-100 0.05%): 16011
Mean Signal (HRP; pH 5, Triton X-100 0.05%): 103599
Signal-Background (HRP; pH 5, Triton X-100 0.05%): 87588
−Enzyme signal (HRP; pH 5, Triton X-100 0.05%): 15096 and 16995 and 15697 and 16257
+Enzyme signal (HRP; pH 5, Triton X-100 0.1%): 86168 and 78778 and 79940 and 81063
Mean Background (HRP; pH 5, Triton X-100 0.1%): 14716
Mean Signal (HRP; pH 5, Triton X-100 0.1%): 81487
Signal-Background (HRP; pH 5, Triton X-100 0.1%): 66771
−Enzyme signal (HRP; pH 5, Triton X-100 0.1%): 14612 and 15268 and 14653 and 14330
+Enzyme signal (HRP; pH 6, Triton X-100 0.01%): 65943 and 71002 and 70952 and 72922
Mean Background (HRP; pH 6, Triton X-100 0.01%): 13218
Mean Signal (HRP; pH 6, Triton X-100 0.01%): 70205
Signal-Background (HRP; pH 6, Triton X-100 0.01%): 56987
−Enzyme signal (HRP; pH 6, Triton X-100 0.01%): 12646 and 15381 and 12242 and 12600
+Enzyme signal (HRP; pH 6, Triton X-100 0.05%): 72420 and 71667 and 65401 and 73540
Mean Background (HRP; pH 6, Triton X-100 0.05%): 15498
Mean Signal (HRP; pH 6, Triton X-100 0.05%): 70757
Signal-Background (HRP; pH 6, Triton X-100 0.05%): 55259
−Enzyme signal (HRP; pH 6, Triton X-100 0.05%): 16006 and 17026 and 14644 and 14316
+Enzyme signal (HRP; pH 6, Triton X-100 0.1%): 73669 and 63411 and 72029 and 67718
Mean Background (HRP; pH 6, Triton X-100 0.1%): 17956
Mean Signal (HRP; pH 6, Triton X-100 0.1%): 69207
Signal-Background (HRP; pH 6, Triton X-100 0.1%): 51251
−Enzyme signal (HRP; pH 6, Triton X-100 0.1%): 21194 and 15983 and 19749 and 14897
SMILES: [2H]C1(C=CC2=C(c3cccc(F)c3F)C(=CC=C3N(CCC)c4ccccc4C3(C)C)CCC2)N(CCC)c2ccccc2C1(C)C (stereo not drawn) [DIR780F2-P]

water solubility [3]: improved water solubility
cell permeability [4]: cell permeable
SMILES: CC1(C)\C(=C/C=C(Br)/C=C/C2N(CCCCCCO)c3ccc4ccccc4c3C2(C)C)N(CCCCCCO)c2ccc3ccccc3c21 (stereo not drawn) [H-IR680DIOL]
